How the values were obtained:
Test in all cases: greenhouse post-emergence herbicidal test
Format in all cases: in vivo
[1] = system: Amaranthus retroflexus
Text: (§1) The seeds of the test plants were sown separately for each species. For the post-emergence treatment, the test plants were first grown to a height of 3 to 15 cm, depending on the plant habit, and only then treated with the active compounds which had been suspended or emulsified in water. For this purpose, the test plants were either sown directly and grown in the same containers, or they were first grown separately as seedlings and transplanted into the test containers a few days prior to treatment. […] (active substance). Depending on the species, the plants were kept at 10-25° C. or 20-35° C. The test period extended over 2 to 4 weeks. During this time, the plants were tended, and their response to the individual treatments was evaluated. Evaluation was carried out using a scale from 0 to 100. 100 means no emergence of the plants, or complete destruction of at least the aerial parts, and 0 means no damage, or normal course of growth. The plants used in the greenhouse experiments belonged to the following species: [table]

[2] = system: Chenopodium album
Text: as §1

[3] = system: Setaria viridis; settings: application rate 1 kg/ha
Text: The seeds of the test plants were sown separately for each species. For the post-emergence treatment, the test plants were first grown to a height of 3 to 15 cm, depending on the plant habit, and only then treated with the active compounds which had been suspended or emulsified in water. For this purpose, the test plants were either sown directly and grown in the same containers, or they were first grown separately as seedlings and transplanted into the test containers a few days prior to treatment. The rate of application for the post-emergence treatment was 1.0 kg/ha of a.s. (active substance). Depending on the species, the plants were kept at 10-25° C. or 20-35° C. The test period extended over 2 to 4 weeks. During this time, the plants were tended, and their response to the individual treatments was evaluated. Evaluation was carried out using a scale from 0 to 100. 100 means no emergence of the plants, or complete destruction of at least the aerial parts, and 0 means no damage, or normal course of growth. The plants used in the greenhouse experiments belonged to the following species: [table]

[4] = system: Galium aparine; settings: application rate 0.5 kg/ha
Text: as §1

SMILES	post-emergence activity against Amaranthus retroflexus ([1]; application rate 1 kg/ha)	post-emergence activity against Chenopodium album ([2]; application rate 1 kg/ha)	post-emergence activity against Setaria viridis [3]	post-emergence activity against Amaranthus retroflexus ([1]; application rate 0.5 kg/ha)	post-emergence activity against Chenopodium album ([2]; application rate 0.5 kg/ha)	post-emergence activity against Galium aparine [4]
CNC(=O)C(NC(=O)c1ccc(F)cc1C(F)(F)F)C(CNC(=O)N(C)C)c1ccccc1 (racemic) [Compound 4.12]	very good	very good	very good	–	–	–
CNC(=O)C(NC(=O)c1ccc(F)cc1C(F)(F)F)C(C[N+](=O)[O-])c1ccccc1 (racemic) [Compound 5.1, 4-Fluoro-N-(1-methylcarbamoyl-3-nitro-2-phenylpropyl)-2-trifluoromethylbenzamide]	–	–	–	very good	good	good
CNC(=O)C(NC(=O)c1ccc(F)cc1C(F)(F)F)C(CNC(=O)N(C)C)c1ccccc1C (mixture of isomers) [Compound 4.33]	very good	very good	very good	–	–	–
CNC(=O)C(NC(=O)c1ccc(F)cc1C(F)(F)F)C(C[N+](=O)[O-])c1cccc(F)c1C (mixture of isomers) [Compound 5.4]	very good	very good	–	–	–	–
CNC(=O)C(NC(=O)c1ccc(F)cc1C(F)(F)F)C(CNC(C)=O)c1ccccc1C (mixture of isomers) [Compound 4.34]	very good	very good	very good	–	–	–
CNC(=O)C(NC(=O)c1ccc(F)cc1C(F)(F)F)C(CNS(C)(=O)=O)c1ccccc1 (mixture of isomers) [Compound 4.4]	very good	very good	very good	–	–	–
CNC(=O)C(NC(=O)c1ccc(F)cc1C(F)(F)F)C(CNC(=O)C(F)(F)F)c1ccccc1 (racemic) [Compound 4.21]	very good	very good	very good	–	–	–
CNC(=O)[C@@H](NC(=O)c1ccc(F)cc1C(F)(F)F)[C@H](CNC(C)=O)c1ccccc1 (racemic) [Compound 4.16, N-((1RS,2RS)-3-Acetylamino-1-methylcarbamoyl-2-phenylpropyl)-4-fluoro-2-trifluoromethylbenzamide]	very good	very good	very good	–	–	–
CNC(=O)C(NC(=O)c1ccc(F)cc1C(F)(F)F)C(CNC(C)=O)c1cccc(F)c1C (mixture of isomers) [Compound 4.36]	very good	very good	very good	–	–	–
CNC(=O)C(NC(=O)c1ccc(F)cc1C(F)(F)F)C(CNC(=O)C(Cl)(Cl)Cl)c1ccccc1 (racemic) [Compound 4.22]	very good	very good	very good	–	–	–
CNC(=O)C(NC(=O)c1ccc(F)cc1C(F)(F)F)C(c1ccccc1)C(C)[N+](=O)[O-] (mixture of isomers) [Compound 5.2]	–	–	–	very good	very good	very good
CNC(=O)C(NC(=O)c1ccc(F)cc1C(F)(F)F)C(c1ccccc1C)C(C)O (racemic) [Compound 3.12]	–	–	–	very good	very good	very good
CNC(=O)C(NC(=O)c1ccc(F)cc1C(F)(F)F)C(C[N+](=O)[O-])c1cccc(F)c1 (mixture of isomers) [Compound 5.3]	very good	good	–	–	–	–
